{"source": "ChEMBL document CHEMBL4507257", "about": "“Data for DCP probe ABT-100” (2021)", "key": {"[1]": {"molecular_target": "5'-AMP-activated protein kinase catalytic subunit alpha-2 (Homo sapiens) (UniProt P54646)", "sequence (P54646 whole entry, looked up)": "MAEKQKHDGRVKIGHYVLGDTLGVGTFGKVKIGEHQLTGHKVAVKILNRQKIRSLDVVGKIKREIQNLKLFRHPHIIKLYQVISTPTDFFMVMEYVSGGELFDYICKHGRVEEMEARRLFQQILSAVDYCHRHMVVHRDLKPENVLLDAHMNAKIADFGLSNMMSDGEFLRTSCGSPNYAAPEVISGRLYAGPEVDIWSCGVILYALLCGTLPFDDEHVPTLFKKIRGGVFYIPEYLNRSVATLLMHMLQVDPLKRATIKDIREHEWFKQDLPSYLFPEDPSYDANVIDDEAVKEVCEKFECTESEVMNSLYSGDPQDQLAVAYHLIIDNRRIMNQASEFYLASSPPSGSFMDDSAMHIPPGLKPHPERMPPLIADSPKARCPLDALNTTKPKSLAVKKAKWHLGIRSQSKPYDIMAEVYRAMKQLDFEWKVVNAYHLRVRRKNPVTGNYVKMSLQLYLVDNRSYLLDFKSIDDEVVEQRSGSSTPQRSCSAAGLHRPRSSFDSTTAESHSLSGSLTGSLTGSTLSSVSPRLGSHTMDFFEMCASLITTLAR", "settings": "Compound concentration 1000.0 nM"}, "[2]": {"molecular_target": "Bone morphogenetic protein receptor type-2 (Homo sapiens) (UniProt Q13873)", "settings": "Compound concentration 1000.0 nM"}, "[3]": {"molecular_target": "Protein-tyrosine kinase 6 (Homo sapiens) (UniProt Q13882)", "sequence (Q13882 whole entry, looked up)": "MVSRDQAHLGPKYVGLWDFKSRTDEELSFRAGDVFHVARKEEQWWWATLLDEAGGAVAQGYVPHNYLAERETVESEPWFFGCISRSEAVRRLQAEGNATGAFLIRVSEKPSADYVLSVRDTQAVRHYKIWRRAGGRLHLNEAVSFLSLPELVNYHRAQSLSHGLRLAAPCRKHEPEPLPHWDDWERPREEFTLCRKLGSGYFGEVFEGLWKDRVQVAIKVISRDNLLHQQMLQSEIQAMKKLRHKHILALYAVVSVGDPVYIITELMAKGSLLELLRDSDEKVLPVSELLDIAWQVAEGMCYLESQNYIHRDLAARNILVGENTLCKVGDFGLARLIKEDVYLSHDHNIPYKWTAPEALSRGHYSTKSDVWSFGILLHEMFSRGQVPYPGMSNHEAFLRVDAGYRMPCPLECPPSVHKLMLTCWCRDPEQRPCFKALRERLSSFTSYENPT", "settings": "Compound concentration 1000.0 nM"}, "[4]": {"molecular_target": "Calcium/calmodulin-dependent protein kinase type 1 (Homo sapiens) (UniProt Q14012)", "sequence (Q14012 whole entry, looked up)": "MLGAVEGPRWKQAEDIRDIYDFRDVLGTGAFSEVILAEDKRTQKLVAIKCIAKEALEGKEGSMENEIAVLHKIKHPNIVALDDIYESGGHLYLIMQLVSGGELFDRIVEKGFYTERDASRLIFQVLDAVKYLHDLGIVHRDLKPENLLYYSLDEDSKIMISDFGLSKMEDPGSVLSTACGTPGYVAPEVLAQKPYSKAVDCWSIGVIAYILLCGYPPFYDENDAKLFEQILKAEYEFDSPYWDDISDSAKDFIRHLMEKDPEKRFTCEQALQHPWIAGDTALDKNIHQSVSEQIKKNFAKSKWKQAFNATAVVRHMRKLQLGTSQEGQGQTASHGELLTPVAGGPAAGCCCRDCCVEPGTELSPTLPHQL", "settings": "Compound concentration 1000.0 nM"}, "[5]": {"molecular_target": "Cyclin-dependent kinase 13 (Homo sapiens) (UniProt Q14004)", "settings": "Compound concentration 1000.0 nM"}, "[6]": {"molecular_target": "Cyclin-dependent kinase 19 (Homo sapiens) (UniProt Q9BWU1)", "settings": "Compound concentration 1000.0 nM"}, "[7]": {"molecular_target": "Cyclin-dependent kinase 5 (Homo sapiens) (UniProt Q00535)", "sequence (Q00535 whole entry, looked up)": "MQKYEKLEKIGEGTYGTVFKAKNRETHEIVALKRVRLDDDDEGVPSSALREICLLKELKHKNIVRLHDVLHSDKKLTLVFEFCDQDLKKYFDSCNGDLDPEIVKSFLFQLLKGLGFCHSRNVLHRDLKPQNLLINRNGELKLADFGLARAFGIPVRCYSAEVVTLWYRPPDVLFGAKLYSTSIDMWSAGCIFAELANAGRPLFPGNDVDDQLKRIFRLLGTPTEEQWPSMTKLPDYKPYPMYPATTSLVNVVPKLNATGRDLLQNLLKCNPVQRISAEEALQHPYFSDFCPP", "settings": "Compound concentration 1000.0 nM"}, "[8]": {"molecular_target": "Cyclin-dependent kinase 8 (Homo sapiens) (UniProt P49336)", "sequence (P49336 whole entry)": "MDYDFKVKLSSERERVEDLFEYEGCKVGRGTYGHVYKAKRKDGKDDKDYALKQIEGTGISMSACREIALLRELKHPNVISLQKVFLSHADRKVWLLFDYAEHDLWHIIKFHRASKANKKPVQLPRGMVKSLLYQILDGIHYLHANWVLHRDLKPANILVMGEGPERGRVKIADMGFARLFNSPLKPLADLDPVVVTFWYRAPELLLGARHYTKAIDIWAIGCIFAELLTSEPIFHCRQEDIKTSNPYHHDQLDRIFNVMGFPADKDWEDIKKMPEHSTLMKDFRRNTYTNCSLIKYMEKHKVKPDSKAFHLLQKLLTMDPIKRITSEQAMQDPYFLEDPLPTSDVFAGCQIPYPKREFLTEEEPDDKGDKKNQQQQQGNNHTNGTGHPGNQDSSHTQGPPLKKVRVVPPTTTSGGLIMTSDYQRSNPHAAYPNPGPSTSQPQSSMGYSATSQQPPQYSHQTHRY", "settings": "Compound concentration 1000.0 nM"}, "[9]": {"molecular_target": "Macrophage colony-stimulating factor 1 receptor (Homo sapiens) (UniProt P07333)", "settings": "Compound concentration 1000.0 nM"}, "[10]": {"molecular_target": "Ephrin type-A receptor 6 (Homo sapiens) (UniProt Q9UF33)", "settings": "Compound concentration 1000.0 nM"}, "[11]": {"molecular_target": "Mitogen-activated protein kinase 3 (Homo sapiens) (UniProt P27361)", "settings": "Compound concentration 1000.0 nM"}, "[12]": {"molecular_target": "Tyrosine-protein kinase HCK (Homo sapiens) (UniProt P08631)", "settings": "Compound concentration 1000.0 nM"}, "[13]": {"system": "Mast/stem cell growth factor receptor Kit (Homo sapiens), P10721 [L576P]", "settings": "Compound concentration 1000.0 nM"}, "[14]": {"system": "Mast/stem cell growth factor receptor Kit (Homo sapiens), P10721 [V559D]", "settings": "Compound concentration 1000.0 nM"}, "[15]": {"system": "Mast/stem cell growth factor receptor Kit (Homo sapiens), P10721 [V559D,T670I]", "settings": "Compound concentration 1000.0 nM"}, "[16]": {"molecular_target": "LIM domain kinase 1 (Homo sapiens) (UniProt P53667)", "settings": "Compound concentration 1000.0 nM"}, "[17]": {"molecular_target": "Mitogen-activated protein kinase kinase kinase 2 (Homo sapiens) (UniProt Q9Y2U5)", "settings": "Compound concentration 1000.0 nM"}, "[18]": {"molecular_target": "Mitogen-activated protein kinase kinase kinase kinase 2 (Homo sapiens) (UniProt Q12851)", "settings": "Compound concentration 1000.0 nM"}, "[19]": {"molecular_target": "Mitogen-activated protein kinase kinase kinase kinase 5 (Homo sapiens) (UniProt Q9Y4K4)", "settings": "Compound concentration 1000.0 nM"}, "[20]": {"molecular_target": "MAP kinase-interacting serine/threonine-protein kinase 1 (Homo sapiens) (UniProt Q9BUB5)", "sequence (Q9BUB5 whole entry, looked up)": "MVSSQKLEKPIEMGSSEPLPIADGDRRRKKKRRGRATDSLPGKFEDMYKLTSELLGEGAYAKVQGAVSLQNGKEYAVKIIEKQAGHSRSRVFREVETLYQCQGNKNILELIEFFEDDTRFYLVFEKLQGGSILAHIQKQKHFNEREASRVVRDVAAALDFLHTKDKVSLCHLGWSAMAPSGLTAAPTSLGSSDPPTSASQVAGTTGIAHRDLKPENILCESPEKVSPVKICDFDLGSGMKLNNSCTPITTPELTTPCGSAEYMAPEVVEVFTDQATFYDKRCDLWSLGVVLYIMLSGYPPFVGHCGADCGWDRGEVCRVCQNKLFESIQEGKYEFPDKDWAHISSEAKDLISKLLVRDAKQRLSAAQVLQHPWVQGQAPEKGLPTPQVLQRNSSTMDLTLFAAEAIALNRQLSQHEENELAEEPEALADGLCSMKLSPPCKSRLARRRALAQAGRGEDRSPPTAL", "settings": "Compound concentration 1000.0 nM"}, "[21]": {"molecular_target": "Muscle, skeletal receptor tyrosine-protein kinase (Homo sapiens) (UniProt O15146)", "sequence (O15146 whole entry)": "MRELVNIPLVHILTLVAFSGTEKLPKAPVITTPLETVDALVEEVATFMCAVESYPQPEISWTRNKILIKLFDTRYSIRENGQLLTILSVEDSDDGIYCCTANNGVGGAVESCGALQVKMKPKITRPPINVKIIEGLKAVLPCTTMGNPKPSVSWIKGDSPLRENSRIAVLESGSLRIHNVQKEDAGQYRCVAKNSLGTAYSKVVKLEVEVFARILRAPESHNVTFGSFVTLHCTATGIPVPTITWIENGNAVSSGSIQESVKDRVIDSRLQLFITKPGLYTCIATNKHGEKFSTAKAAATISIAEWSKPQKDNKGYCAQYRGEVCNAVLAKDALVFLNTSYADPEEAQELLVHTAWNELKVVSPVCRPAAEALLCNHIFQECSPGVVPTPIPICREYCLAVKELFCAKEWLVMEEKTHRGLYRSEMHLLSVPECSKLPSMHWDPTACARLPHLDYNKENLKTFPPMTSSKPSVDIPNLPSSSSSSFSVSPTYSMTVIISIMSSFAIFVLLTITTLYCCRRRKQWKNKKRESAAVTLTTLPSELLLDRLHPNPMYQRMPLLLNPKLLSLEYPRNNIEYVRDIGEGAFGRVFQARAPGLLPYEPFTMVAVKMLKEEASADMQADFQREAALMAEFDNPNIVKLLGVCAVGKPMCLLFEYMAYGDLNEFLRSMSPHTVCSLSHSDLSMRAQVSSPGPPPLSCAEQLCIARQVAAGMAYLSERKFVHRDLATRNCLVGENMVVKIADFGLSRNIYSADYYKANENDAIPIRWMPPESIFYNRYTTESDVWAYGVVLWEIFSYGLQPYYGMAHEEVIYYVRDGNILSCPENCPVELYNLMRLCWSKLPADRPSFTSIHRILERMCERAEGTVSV", "settings": "Compound concentration 1000.0 nM"}, "[22]": {"molecular_target": "Serine/threonine-protein kinase Nek11 (Homo sapiens) (UniProt Q8NG66)", "settings": "Compound concentration 1000.0 nM"}, "[23]": {"molecular_target": "Serine/threonine-protein kinase PAK 2 (Homo sapiens) (UniProt Q13177)", "settings": "Compound concentration 1000.0 nM"}, "[24]": {"molecular_target": "3-phosphoinositide-dependent protein kinase 1 (Homo sapiens) (UniProt O15530)", "settings": "Compound concentration 1000.0 nM"}, "[25]": {"molecular_target": "Phosphatidylinositol 4-kinase beta (Homo sapiens) (UniProt Q9UBF8)", "sequence (Q9UBF8 2-816 limits assumed)": "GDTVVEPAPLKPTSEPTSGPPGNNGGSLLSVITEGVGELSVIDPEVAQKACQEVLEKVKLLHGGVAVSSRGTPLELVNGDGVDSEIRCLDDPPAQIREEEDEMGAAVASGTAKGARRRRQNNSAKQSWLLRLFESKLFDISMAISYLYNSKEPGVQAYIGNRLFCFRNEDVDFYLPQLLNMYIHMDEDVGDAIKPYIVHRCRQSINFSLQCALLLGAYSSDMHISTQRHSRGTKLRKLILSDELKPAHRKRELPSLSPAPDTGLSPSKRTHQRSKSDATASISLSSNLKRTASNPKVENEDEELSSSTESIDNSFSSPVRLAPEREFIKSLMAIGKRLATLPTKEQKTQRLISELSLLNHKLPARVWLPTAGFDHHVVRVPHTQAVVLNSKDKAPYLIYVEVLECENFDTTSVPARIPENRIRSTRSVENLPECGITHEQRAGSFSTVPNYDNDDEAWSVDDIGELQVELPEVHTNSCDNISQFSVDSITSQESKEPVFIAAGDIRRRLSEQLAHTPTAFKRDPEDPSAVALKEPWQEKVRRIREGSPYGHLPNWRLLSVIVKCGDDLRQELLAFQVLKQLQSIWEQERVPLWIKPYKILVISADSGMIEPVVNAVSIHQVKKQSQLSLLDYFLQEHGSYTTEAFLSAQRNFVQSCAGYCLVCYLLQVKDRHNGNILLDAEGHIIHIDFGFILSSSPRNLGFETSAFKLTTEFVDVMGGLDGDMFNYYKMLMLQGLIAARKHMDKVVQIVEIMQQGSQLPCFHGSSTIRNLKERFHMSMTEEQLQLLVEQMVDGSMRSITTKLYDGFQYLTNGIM", "settings": "Compound concentration 1000.0 nM"}, "[26]": {"molecular_target": "cGMP-dependent protein kinase 2 (Homo sapiens) (UniProt Q13237)", "settings": "Compound concentration 1000.0 nM"}, "[27]": {"molecular_target": "SNF-related serine/threonine-protein kinase (Homo sapiens) (UniProt Q9NRH2)", "settings": "Compound concentration 1000.0 nM"}, "[28]": {"molecular_target": "Serine/threonine-protein kinase 36 (Homo sapiens) (UniProt Q9NRP7)", "settings": "Compound concentration 1000.0 nM"}, "[29]": {"molecular_target": "BDNF/NT-3 growth factors receptor (Homo sapiens) (UniProt Q16620)", "settings": "Compound concentration 1000.0 nM"}, "[30]": {"molecular_target": "NT-3 growth factor receptor (Homo sapiens) (UniProt Q16288)", "settings": "Compound concentration 1000.0 nM"}, "[31]": {"molecular_target": "Serine/threonine-protein kinase WNK3 (Homo sapiens) (UniProt Q9BYP7)", "settings": "Compound concentration 1000.0 nM"}, "[32]": {"molecular_target": "T1, 5-hydroxytryptamine receptor 2C (Homo sapiens) (UniProt P28335)", "T1 sequence (whole entry)": "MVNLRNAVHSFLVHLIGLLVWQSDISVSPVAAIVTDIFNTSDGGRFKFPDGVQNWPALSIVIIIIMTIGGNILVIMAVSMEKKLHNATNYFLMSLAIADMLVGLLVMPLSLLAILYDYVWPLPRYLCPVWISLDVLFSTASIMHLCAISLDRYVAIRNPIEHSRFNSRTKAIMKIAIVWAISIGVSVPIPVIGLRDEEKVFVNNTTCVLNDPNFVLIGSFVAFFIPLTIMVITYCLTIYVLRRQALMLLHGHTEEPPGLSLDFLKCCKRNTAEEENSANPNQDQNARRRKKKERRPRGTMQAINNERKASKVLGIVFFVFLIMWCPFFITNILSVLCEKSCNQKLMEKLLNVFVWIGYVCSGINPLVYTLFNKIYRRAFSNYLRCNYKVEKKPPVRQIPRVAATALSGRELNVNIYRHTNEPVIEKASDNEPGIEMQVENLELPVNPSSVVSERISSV", "settings": "Compound concentration 10.0 uM"}, "[33]": {"molecular_target": "D(3) dopamine receptor (Homo sapiens) (UniProt P35462)", "settings": "Compound concentration 10.0 uM"}, "[34]": {"molecular_target": "Histamine H4 receptor (Homo sapiens) (UniProt Q9H3N8)", "settings": "Compound concentration 10.0 uM"}, "[35]": {"molecular_target": "Alpha-2A adrenergic receptor (Homo sapiens) (UniProt P08913)", "sequence (P08913 whole entry)": "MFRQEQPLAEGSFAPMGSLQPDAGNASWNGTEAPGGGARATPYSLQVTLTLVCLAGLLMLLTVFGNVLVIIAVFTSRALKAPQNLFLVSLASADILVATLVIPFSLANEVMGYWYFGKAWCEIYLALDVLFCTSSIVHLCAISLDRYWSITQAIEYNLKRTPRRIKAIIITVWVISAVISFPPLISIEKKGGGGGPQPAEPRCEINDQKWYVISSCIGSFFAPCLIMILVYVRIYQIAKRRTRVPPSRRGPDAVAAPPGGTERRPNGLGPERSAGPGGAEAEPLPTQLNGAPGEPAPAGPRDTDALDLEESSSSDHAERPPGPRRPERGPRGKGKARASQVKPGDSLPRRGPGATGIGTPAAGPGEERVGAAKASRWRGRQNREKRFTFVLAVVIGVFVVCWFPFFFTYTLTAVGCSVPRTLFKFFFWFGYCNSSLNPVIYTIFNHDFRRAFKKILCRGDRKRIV", "settings": "Compound concentration 10.0 uM"}}}
{"smiles": "Cn1cncc1[C@@](O)(COc1ccc(C#N)cc1-c1ccc(OC(F)(F)F)cc1)c1ccc(C#N)cc1", "note": "[A-108]", "values": [{"measurement": "residual activity", "setting": "[1]", "result": 87, "unit": "%"}, {"measurement": "residual activity", "setting": "[2]", "result": 100, "unit": "%"}, {"measurement": "residual activity", "setting": "[3]", "result": 100, "unit": "%"}, {"measurement": "residual activity", "setting": "[4]", "result": 100, "unit": "%"}, {"measurement": "residual activity", "setting": "[5]", "result": 87, "unit": "%"}, {"measurement": "residual activity", "setting": "[6]", "result": 64, "unit": "%"}, {"measurement": "residual activity", "setting": "[7]", "result": 96, "unit": "%"}, {"measurement": "residual activity", "setting": "[8]", "result": 100, "unit": "%"}, {"measurement": "residual activity", "setting": "[9]", "result": 100, "unit": "%"}, {"measurement": "residual activity", "setting": "[10]", "result": 3, "unit": "%"}, {"measurement": "residual activity", "setting": "[11]", "result": 83, "unit": "%"}, {"measurement": "residual activity", "setting": "[12]", "result": 100, "unit": "%"}, {"measurement": "residual activity", "setting": "[13]", "result": 95, "unit": "%"}, {"measurement": "residual activity", "setting": "[14]", "result": 97, "unit": "%"}, {"measurement": "residual activity", "setting": "[15]", "result": 82, "unit": "%"}, {"measurement": "residual activity", "setting": "[16]", "result": 100, "unit": "%"}, {"measurement": "residual activity", "setting": "[17]", "result": 100, "unit": "%"}, {"measurement": "residual activity", "setting": "[18]", "result": 100, "unit": "%"}, {"measurement": "residual activity", "setting": "[19]", "result": 100, "unit": "%"}, {"measurement": "residual activity", "setting": "[20]", "result": 81, "unit": "%"}, {"measurement": "residual activity", "setting": "[21]", "result": 100, "unit": "%"}, {"measurement": "residual activity", "setting": "[22]", "result": 100, "unit": "%"}, {"measurement": "residual activity", "setting": "[23]", "result": 96, "unit": "%"}, {"measurement": "residual activity", "setting": "[24]", "result": 96, "unit": "%"}, {"measurement": "residual activity", "setting": "[25]", "result": 80, "unit": "%"}, {"measurement": "residual activity", "setting": "[26]", "result": 87, "unit": "%"}, {"measurement": "residual activity", "setting": "[27]", "result": 87, "unit": "%"}, {"measurement": "residual activity", "setting": "[28]", "result": 93, "unit": "%"}, {"measurement": "residual activity", "setting": "[29]", "result": 88, "unit": "%"}, {"measurement": "residual activity", "setting": "[30]", "result": 99, "unit": "%"}, {"measurement": "residual activity", "setting": "[31]", "result": 100, "unit": "%"}, {"measurement": "inhibition", "setting": "[32]", "result": 17.1, "unit": "%"}, {"measurement": "inhibition", "setting": "[33]", "result": 18.1, "unit": "%"}, {"measurement": "inhibition", "setting": "[34]", "result": -3.79, "unit": "%"}, {"measurement": "inhibition", "setting": "[35]", "result": 3.37, "unit": "%"}]}
{"smiles": "Cn1cncc1[C@](O)(COc1ccc(C#N)cc1-c1ccc(OC(F)(F)F)cc1)c1ccc(C#N)cc1", "note": "[ABT-100]", "values": [{"measurement": "residual activity", "setting": "[1]", "result": 100, "unit": "%"}, {"measurement": "residual activity", "setting": "[2]", "result": 89, "unit": "%"}, {"measurement": "residual activity", "setting": "[3]", "result": 100, "unit": "%"}, {"measurement": "residual activity", "setting": "[4]", "result": 99, "unit": "%"}, {"measurement": "residual activity", "setting": "[5]", "result": 67, "unit": "%"}, {"measurement": "residual activity", "setting": "[6]", "result": 84, "unit": "%"}, {"measurement": "residual activity", "setting": "[7]", "result": 92, "unit": "%"}, {"measurement": "residual activity", "setting": "[8]", "result": 66, "unit": "%"}, {"measurement": "residual activity", "setting": "[9]", "result": 93, "unit": "%"}, {"measurement": "residual activity", "setting": "[10]", "result": 100, "unit": "%"}, {"measurement": "residual activity", "setting": "[11]", "result": 90, "unit": "%"}, {"measurement": "residual activity", "setting": "[12]", "result": 100, "unit": "%"}, {"measurement": "residual activity", "setting": "[13]", "result": 100, "unit": "%"}, {"measurement": "residual activity", "setting": "[14]", "result": 100, "unit": "%"}, {"measurement": "residual activity", "setting": "[15]", "result": 84, "unit": "%"}, {"measurement": "residual activity", "setting": "[16]", "result": 89, "unit": "%"}, {"measurement": "residual activity", "setting": "[17]", "result": 77, "unit": "%"}, {"measurement": "residual activity", "setting": "[18]", "result": 100, "unit": "%"}, {"measurement": "residual activity", "setting": "[19]", "result": 100, "unit": "%"}, {"measurement": "residual activity", "setting": "[20]", "result": 68, "unit": "%"}, {"measurement": "residual activity", "setting": "[21]", "result": 93, "unit": "%"}, {"measurement": "residual activity", "setting": "[22]", "result": 100, "unit": "%"}, {"measurement": "residual activity", "setting": "[23]", "result": 93, "unit": "%"}, {"measurement": "residual activity", "setting": "[24]", "result": 87, "unit": "%"}, {"measurement": "residual activity", "setting": "[25]", "result": 94, "unit": "%"}, {"measurement": "residual activity", "setting": "[26]", "result": 100, "unit": "%"}, {"measurement": "residual activity", "setting": "[27]", "result": 100, "unit": "%"}, {"measurement": "residual activity", "setting": "[28]", "result": 80, "unit": "%"}, {"measurement": "residual activity", "setting": "[29]", "result": 92, "unit": "%"}, {"measurement": "residual activity", "setting": "[30]", "result": 80, "unit": "%"}, {"measurement": "residual activity", "setting": "[31]", "result": 100, "unit": "%"}, {"measurement": "inhibition", "setting": "[32]", "result": 0.26, "unit": "%"}, {"measurement": "inhibition", "setting": "[33]", "result": -9.46, "unit": "%"}, {"measurement": "inhibition", "setting": "[34]", "result": -6.36, "unit": "%"}, {"measurement": "inhibition", "setting": "[35]", "result": 32.2, "unit": "%"}]}
